Experimental data reported in PMC10590056, “Design and synthesis of cabotegravir derivatives bearing 1,2,3-triazole and evaluation of anti-liver cancer activity” (Frontiers in Pharmacology, 2023).
“And” between values parts separate entries of the source, which are not always exact repeats. Identical values can stand only once.

Assays:
Assay type in all cases: cell-based
HepG2 cells = assay: MTT assay for cell proliferation and cytotoxicity, HepG2; parameters: key to Inhibitory rate: inhibition rate = 1 - mean A490 sample/mean A490 control (fraction); details: for IC50: HepG2, 48 h, MTT; for Inhibitory rate / ODtreated/ODcontrol: HepG2, fraction, per experiment; for Inhibition rate (16μM), 48 h, HepG2: preliminary screening, HepG2, 16 μM, mean±SD, unit not given
Protocol: (§1) HepG2, HeLa, MCF-7, and KYSE-30 cells were grown in a humidified incubator at 37°C with 5% CO2 in DMEM supplemented with 10% fetal bovine serum (FBS), […] streptomycin, and 100 U/mL penicillin.
(§2) When HepG2 cells reached 80% confluence, they were treated with 1 mL of trypsin and resuspended at a density of 10^5 cells/mL. Then, 100 μL of cell suspension was seeded into each well of a 96-well plate and incubated in a humidified atmosphere. The different concentrations of KJ-5 and KJ-12 (0, 1, 2, 4, 8, 16, and 32 μM) were added to each well, and the cells were further incubated for 48 h. Afterward, 20 μL of the MTT solution (5 mg/mL) was added to each well, and incubation was continued for another 4 h. The supernatant was discarded, and 200 μL of the DMSO solution was added to each well. The plate was shaken for 10 min in the dark. The absorbance values were measured at 490 nm using an enzyme-linked detector. The cell inhibition rate (%) was calculated using the following formula: (1-Mean A490 sample/Mean A490 control) × 100%.

MCF-7 cells = assay: MTT assay for cell proliferation, MCF-7; parameters: key to Inhibitory rate / Inhibition rate: inhibition rate = 1 - mean A490 sample/mean A490 control (fraction); details: for Inhibition rate (16μM), 48 h, MCF-7: preliminary screening, MCF-7, 16 μM, mean±SD, unit not given
Protocol: as §1, §2

HeLa cells = assay: MTT assay for cell proliferation, HeLa; parameters: key to Inhibitory rate: inhibition rate = 1 - mean A490 sample/mean A490 control (fraction); details: Hela; for Inhibitory rate / ODtreated/ODcontrol: fraction, per experiment; for Inhibition rate (16μM), 48 h, Hela: preliminary screening, mean±SD, unit not given
Protocol: as §1, §2

KYSE-30 cells = assay: MTT assay for cell proliferation, KYSE-30; parameters: key to Inhibitory rate: inhibition rate = 1 - mean A490 sample/mean A490 control (fraction); details: for Inhibitory rate: KYSE-30, given as fraction; for Inhibition rate (16μM), 48 h, KYSE-30: preliminary screening, KYSE-30, 16 μM, mean±SD, unit not given
Protocol: as §1, §2

[1] = MCF-7, fraction, per experiment
[2] = given as fraction, second of three experiments
[3] = given as fraction, third of three experiments
[4] = KYSE-30, first of three experiments
[5] = KYSE-30, second of three experiments
[6] = KYSE-30, third of three experiments

Structure (SMILES)	IC50 (HepG2 cells) [µM]	Inhibitory rate (HepG2 cells)	ODtreated/ODcontrol (HepG2 cells)	Inhibition rate (16μM), 48 h, HepG2 (HepG2 cells)	Inhibitory rate (MCF-7 cells; [1])	ODtreated/ODcontrol (MCF-7 cells; [1])	Inhibitory rate (MCF-7 cells; [2])	Inhibition rate (MCF-7 cells; [3])	Inhibition rate (16μM), 48 h, MCF-7 (MCF-7 cells)	ODtreated/ODcontrol (MCF-7 cells; second of three experiments)	ODtreated/ODcontrol (MCF-7 cells; third of three experiments)	Inhibitory rate (HeLa cells)	ODtreated/ODcontrol (HeLa cells)	Inhibition rate (16μM), 48 h, Hela (HeLa cells)	ODtreated/ODcontrol (KYSE-30 cells; [4])	Inhibitory rate (KYSE-30 cells; first of three experiments)	Inhibitory rate (KYSE-30 cells; second of three experiments)	Inhibitory rate (KYSE-30 cells; third of three experiments)	ODtreated/ODcontrol (KYSE-30 cells; [5])	ODtreated/ODcontrol (KYSE-30 cells; [6])	further results
COc1c2n(cc(C(=O)Nc3cccc(-c4cn(-c5ccccc5C(F)(F)F)nn4)c3)c1=O)C[C@H]1OC[C@H](C)N1C2=O [KJ-1]	13.6 ± 1.09	0.48 and 0.4907 and 0.4342	0.52 and 0.5093 and 0.5658	46.83±3.00	0.4609	0.5391	0.4929	0.3773	44.37±5.97	0.5071	0.6227	0.456 and 0.4789 and 0.3414	0.544 and 0.5211 and 0.6586	44.98±3.26	0.5729	0.4271	0.3646	0.3875	0.6354	0.6125	Inhibition rate (16μM), 48 h, KYSE-30 (KYSE-30 cells): 39.31±3.16
COc1c2n(cc(C(=O)Nc3cccc(-c4cn(-c5ccccc5C)nn4)c3)c1=O)C[C@H]1OC[C@H](C)N1C2=O [KJ-3]	19.5 ± 0.5	0.4219 and 0.4728 and 0.4157	0.5781 and 0.5272 and 0.5843	43.68±3.13	0.4113	0.5887	0.4254	0.3305	38.91±5.12	0.5746	0.6695	0.3938 and 0.4133 and 0.3211	0.6062 and 0.5867 and 0.6789	37.61±4.86	0.6097	0.3903	0.2997	0.2805	0.7003	0.7195	Inhibition rate (16μM), 48 h, KYSE-30 (KYSE-30 cells): 32.35±5.86
COc1c2n(cc(C(=O)Nc3cccc(-c4cn(-c5cccc(C(F)(F)F)c5)nn4)c3)c1=O)C[C@H]1OC[C@H](C)N1C2=O [KJ-8]	9.41 ± 1.3	0.6351 and 0.626 and 0.6586	0.3649 and 0.374 and 0.3414	63.99±1.68	0.6331	0.3669	0.5745	0.558	58.85±3.95	0.4255	0.442	0.6574 and 0.6919 and 0.6249	0.3426 and 0.3081 and 0.3751	65.81±3.35	0.3962	0.6038	0.6049	0.5814	0.3951	0.4186	Inhibition rate (16μM), 48 h, KYSE-30 (KYSE-30 cells): 59.67±1.33
COc1c2n(cc(C(=O)Nc3cccc(-c4cn(-c5ccccc5I)nn4)c3)c1=O)CC1OCC(C)N1C2=O (stereo not drawn) [KJ-15]	41.8 ± 1.22	0.3617 and 0.3472 and 0.3578	0.6383 and 0.6528 and 0.6422	35.56±0.75	0.3627	0.6373	0.3633	0.3314	35.25±1.83	0.6367	0.6686	0.2424 and 0.3317 and 0.2684	0.7576 and 0.6683 and 0.7316	28.08±4.59	0.5987	0.4013	0.4302	0.3963	0.5698	0.6037	Inhibition rate (16μM), 48 h, KYSE-30 (KYSE-30 cells): 40.93±1.83
